# Assay results reported in patent publication US20240262819A1, “NOVEL COMPOUNDS HAVING INHIBITORY ACTIVITY AGAINST GLUCOSYLCERAMIDE SYNTHASE OR PHARMACEUTICALLY ACCEPTABLE SALT THEREOF, PROCESSES FOR PREPARING THE SAME, AND PHARMACEUTICAL COMPOSITIONS COMPRISING THE SAME” (YUHAN CORPORATION, priority 2021, published 2024).
# Where two headings read alike, the source gives them in different places.
# Legend:
# [1] = target: glucosylceramide synthase (GCS) (Homo sapiens (Human), UniProt Q16739); test: Evaluation of inhibitory activities against GCS (A549 cell lysate, NBD C6-ceramide, HPLC); assay type: biochemical
# glucosylceramide synthase (GCS), sequence (Q16739 whole entry): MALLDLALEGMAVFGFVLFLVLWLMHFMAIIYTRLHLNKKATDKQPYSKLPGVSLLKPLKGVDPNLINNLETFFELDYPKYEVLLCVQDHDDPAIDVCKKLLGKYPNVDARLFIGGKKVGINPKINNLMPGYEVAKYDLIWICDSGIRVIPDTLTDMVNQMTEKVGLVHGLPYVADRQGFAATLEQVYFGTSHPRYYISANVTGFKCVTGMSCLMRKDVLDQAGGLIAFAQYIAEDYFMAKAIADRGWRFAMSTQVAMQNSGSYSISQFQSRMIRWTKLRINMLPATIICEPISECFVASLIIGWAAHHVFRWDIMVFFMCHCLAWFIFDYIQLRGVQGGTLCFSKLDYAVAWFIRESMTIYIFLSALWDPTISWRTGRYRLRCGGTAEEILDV
# Protocol: The inhibitory activities of the compounds of the present invention against GCS were evaluated, as follows, according to the method described in the known literature (Hayashi Y et al., A sensitive and reproducible assay to measure the activity of glucosylceramide synthase and lactosylceramide synthase using HPLC and fluorescent substrates, Analytical Biochemistry 345 (2005) 181-186). Ibiglustat, known as a GCS inhibitor, was used as a control.
# After the cells attached to the culture dish were washed with phosphate buffered saline (PBS), the cells were scraped off with a cell scraper and then centrifuged (4000 rpm, 3 min, 4 °C) to collect the cells in a 50 ml tube. The cell pellets were suspended in a lysis buffer (50 mM HEPES, pH 7.3, containing 1× the protease/phosphatase inhibitor cocktail), lysed by sonication, and then the lysate was centrifuged (13000 rpm, 10 min, 4° C.). The obtained supernatant was used for the quantitative analysis of proteins. The amount of proteins was measured using the BCA protein assay kit, using bovine serum albumin as a standard.
# Enzymatic reactions were initiated by sequentially adding the following reaction materials to a 96 deep-well plate. Thereafter, the enzymatic reactions were performed at 37° C. for 90 minutes.
# The enzymatic reactions were stopped by adding 100 μl of chloroform/methanol (2:1, v/v). […] The lower layer (50 μl) was transferred to a new 96 deep-well plate and dried with a reduced concentrator.
# Lipids were dissolved in 100 μl of isopropyl alcohol/n-hexane/H2O (55:44:1, v/v/v) and then transferred to a glass vial for HPLC (Agilent, 8004-HP-H/i3u). The sample (100 μl) was automatically loaded onto a normal-phase column (Intersil SIL 150A-5, 4.6×250 mm, GL Sciences, Japan) and then eluted at a flow rate of 2.0 ml/min with isopropyl alcohol/n-hexane/H2O (55:44:1, v/v/v). The fluorescence thereof was measured with a fluorescence detector (Agilent, 1260 FLD Spectra), using 470 nm and 530 nm as excitation and emission wavelengths, respectively.
# Data analysis was performed by the following equations.
# % Area (Sample)=Area (GlcCer)/[Area (Cer)+Area (GlcCer)]×100%
# GCS activity=[Area (Sample)−Area (ibiglustat)]/[Area (DMSO)−Area (ibiglustat)]×100
# The obtained % GCS activity data was analyzed with the software GraphPad Prism (Ver 5.01) to calculate the IC50 values.
# [2] = system: GM1 production in Jurkat cells; test: cells; assay type: cell-based
# [3] = Evaluation of blood-brain barrier (BBB) permeability through oral administration; assay type: in vivo, mice; conditions: mouse, in vivo, mice, oral, dose 30 mg/kg, 4 hr; for Kp at 4 h: read-out: Mean brain-plasma drug ratio at 4 hr
# Protocol: The blood-brain barrier (BBB) permeability was evaluated in mice, with respect to the compounds according to the present invention and the control (ibiglustat). Each compound of the present invention and the control were suspended in 0.5% methyl cellulose containing 0.2% Tween 80 and then orally administered to mice at a dose of 10 or 30 mg/10 ml/kg. After the whole blood was collected from the heart of each mouse at the time of 4 hours after the administration, it was placed in a lithium heparin tube and immediately centrifuged to obtain the plasma. After the exsanguination was carried out through abdominal vena cava incision, the forebrain was taken by dissection of the head. Both of the forebrain and the plasma were stored in a −80° C. freezer until the analysis of drug concentrations therein. For the analysis of drug concentrations therein, the forebrain was immersed in distilled water and then homogenized with a homogenizer to obtain a homogenate. Each plasma and homogenate was treated with acetonitrile to precipitate proteins, vortexed for 15 seconds, and then centrifuged (12700 rpm, 10 min, 4° C.). The obtained supernatant was diluted with an 80% aqueous solution of acetonitrile containing 0.1% formic acid and then analyzed with an LC-MS/MS instrument. LC-MS/MS analysis was carried out with a reversed-phase column, using distilled water containing 0.1% formic acid and acetonitrile as mobile phases. Each eluted material was detected through a mass spectrometer to calculate the drug concentrations thereof. The brain-plasma drug ratio (B/P ratio) was calculated from the drug concentrations in each tissue to evaluate the blood-brain barrier (BBB) permeability.
# [4] = read-out: Mean drug concentrations in brain tissue at 4 hr
# [5] = read-out: Mean drug concentrations in plasma at 4 hr
structure (smiles),measurement,setting,value
"CCc1ccc(-c2ccc3c(c2)CC(C)(C)[C@H]3NC(=O)O[C@@H]2CN3CCC2CC3)cc1F [Example 33, (S)-quinuclidin-3-yl((R)-5-(4-ethyl-3-fluorophenyl)-2,2-dimethyl-2,3-dihydro-1H-inden-1-yl)carbamate]",IC50,[1],0.97 nM
same,IC50,"[2]; Homo sapiens, Jurkat, 72 h",7.3 nM
"CC(C)Oc1c(F)cc(-c2ccc3c(c2)CC(C)(C)[C@H]3NC(=O)O[C@@H]2CN3CCC2CC3)cc1F [Example 37, (S)-quinuclidin-3-yl((R)-5-(3,5-difluoro-4-isopropoxyphenyl)-2,2-dimethyl-2,3-dihydro-1H-inden-1-yl)carbamate]",IC50,[1],1.94 nM
same,IC50,"[2]; Homo sapiens, Jurkat, 72 h",2.2 nM
"CC(C)Oc1c(Cl)cc(-c2ccc3c(c2)CC(C)(C)[C@H]3NC(=O)O[C@@H]2CN3CCC2CC3)cc1Cl [Example 40, (S)-quinuclidin-3-yl((R)-5-(3,5-dichloro-4-isopropoxyphenyl)-2,2-dimethyl-2,3-dihydro-1H-inden-1-yl)carbamate]",IC50,[1],3.21 nM
same,IC50,"[2]; Homo sapiens, Jurkat, 72 h",1.6 nM
"CC(C)(C)Oc1ccc(-c2ccc3c(c2)CC(C)(C)[C@H]3NC(=O)O[C@@H]2CN3CCC2CC3)cc1 [Example 41, (S)-quinuclidin-3-yl((R)-5-(4-(tert-butoxy)phenyl)-2,2-dimethyl-2,3-dihydro-1H-inden-1-yl)carbamate]",IC50,[1],0.9 nM
same,IC50,"[2]; Homo sapiens, Jurkat, 72 h",13.6 nM
"CC(C)(C)Oc1ccc(-c2ccc3c(c2)CC(C)(C)[C@H]3NC(=O)O[C@@H]2CN3CCC2CC3)c(Cl)c1 [Example 42, (S)-quinuclidin-3-yl((R)-5-(4-(tert-butoxy)-2-chlorophenyl)-2,2-dimethyl-2,3-dihydro-1H-inden-1-yl)carbamate]",IC50,[1],0.3 nM
same,IC50,"[2]; Homo sapiens, Jurkat, 72 h",2.6 nM
"CCOc1ccc(-c2ccc3c(c2)CC(C)(C)[C@H]3NC(=O)O[C@@H]2CN3CCC2CC3)cc1C [Example 46, (S)-quinuclidin-3-yl((R)-5-(4-ethoxy-3-methylphenyl)-2,2-dimethyl-2,3-dihydro-1H-inden-1-yl)carbamate]",IC50,[1],2.19 nM
same,IC50,"[2]; Homo sapiens, Jurkat, 72 h",11.6 nM
"CCCOc1ccc(-c2ccc3c(c2)CC(C)(C)[C@H]3NC(=O)O[C@@H]2CN3CCC2CC3)cc1C [Example 47, (S)-quinuclidin-3-yl((R)-2,2-dimethyl-5-(3-methyl-4-propoxyphenyl)-2,3-dihydro-1H-inden-1-yl) carbamate]",IC50,"[1]; % GCS activity, A549 cell lysate, 37° C. for 90 minutes, read-out: IC50",1.89 nM
same,IC50,[2]; read-out: IC50,7.7 nM
"CC(C)c1ccc(-c2cc3c(cc2F)[C@H](NC(=O)O[C@@H]2CN4CCC2CC4)C(C)(C)C3)cc1 [Example 59, (S)-quinuclidin-3-yl((R)-6-fluoro-5-(4-isopropylphenyl)-2,2-dimethyl-2,3-dihydro-1H-inden-1-yl)carbamate]",IC50,"[2]; Homo sapiens, Jurkat, 72 h",4.3 nM
same,Kp at 4 h,[3],9.7
same,concentration at 4 h,[3]; [4],4120 ng/g
same,concentration at 4 h,[3]; [5],436 ng/mL
"CCCc1ccc(-c2cc3c(cc2F)[C@H](NC(=O)O[C@@H]2CN4CCC2CC4)C(C)(C)C3)cc1 [Example 61, (S)-quinuclidin-3-yl((R)-6-fluoro-2,2-dimethyl-5-(4-propylphenyl)-2,3-dihydro-1H-inden-1-yl)carbamate]",IC50,"[2]; Homo sapiens, Jurkat, 72 h",10.6 nM
same,Kp at 4 h,[3],11.1
same,concentration at 4 h,[3]; [4],4880 ng/g
same,concentration at 4 h,[3]; [5],439 ng/mL
"CC(C)Cc1ccc(-c2cc3c(cc2F)[C@H](NC(=O)O[C@@H]2CN4CCC2CC4)C(C)(C)C3)cc1 [Example 62, (S)-quinuclidin-3-yl((R)-6-fluoro-5-(4-isobutylphenyl)-2,2-dimethyl-2,3-dihydro-1H-inden-1-yl)carbamate]",IC50,"[2]; Homo sapiens, Jurkat, 72 h",3.4 nM
same,Kp at 4 h,[3],6.83
same,concentration at 4 h,[3]; [4],2960 ng/g
same,concentration at 4 h,[3]; [5],434 ng/mL
"COc1c(C)cc(-c2cc3c(cc2F)[C@H](NC(=O)O[C@@H]2CN4CCC2CC4)C(C)(C)C3)cc1C [Example 63, (S)-quinuclidin-3-yl((R)-6-fluoro-5-(4-methoxy-3,5-dimethylphenyl)-2,2-dimethyl-2,3-dihydro-1H-inden-1-yl)carbamate]",IC50,"[2]; Homo sapiens, Jurkat, 72 h",20.6 nM
same,Kp at 4 h,[3],1.4
same,concentration at 4 h,[3]; [4],1360 ng/g
same,concentration at 4 h,[3]; [5],974 ng/mL
"Cc1cc(-c2cc3c(cc2F)[C@H](NC(=O)O[C@@H]2CN4CCC2CC4)C(C)(C)C3)cc(C)c1OC(C)C [Example 65, (S)-quinuclidin-3-yl((R)-6-fluoro-5-(4-isopropoxy-3,5-dimethylphenyl)-2,2-dimethyl-2,3-dihydro-1H-inden-1-yl)carbamate]",IC50,"[2]; Homo sapiens, Jurkat, 72 h",8.8 nM
same,Kp at 4 h,[3],5.04
same,concentration at 4 h,[3]; [4],4080 ng/g
same,concentration at 4 h,[3]; [5],811 ng/mL
"CC(C)Oc1ccc(-c2cc3c(cc2F)[C@H](NC(=O)O[C@@H]2CN4CCC2CC4)C(C)(C)C3)cc1Cl [Example 66, (S)-quinuclidin-3-yl((R)-5-(3-chloro-4-isopropoxyphenyl)-6-fluoro-2,2-dimethyl-2,3-dihydro-1H-inden-1-yl)carbamate]",IC50,"[2]; Homo sapiens, Jurkat, 72 h",5.04 nM
same,Kp at 4 h,[3],7.85
same,concentration at 4 h,[3]; [4],5490 ng/g
same,concentration at 4 h,[3]; [5],719 ng/mL
"COc1ccc(-c2cc3c(cc2F)[C@H](NC(=O)O[C@@H]2CN4CCC2CC4)C(C)(C)C3)c(F)c1 [Example 67, (S)-quinuclidin-3-yl((R)-6-fluoro-5-(2-fluoro-4-methoxyphenyl)-2,2-dimethyl-2,3-dihydro-1H-inden-1-yl)carbamate]",IC50,"[2]; Homo sapiens, Jurkat, 72 h",5.3 nM
same,Kp at 4 h,[3],4.11
same,concentration at 4 h,[3]; [4],3670 ng/g
same,concentration at 4 h,[3]; [5],903 ng/mL
"CC(C)Oc1ccc(-c2cc3c(cc2F)[C@H](NC(=O)O[C@@H]2CN4CCC2CC4)C(C)(C)C3)cc1 [Example 68, (S)-quinuclidin-3-yl((R)-6-fluoro-5-(4-isopropoxyphenyl)-2,2-dimethyl-2,3-dihydro-1H-inden-1-yl)carbamate]",IC50,"[2]; Homo sapiens, Jurkat, 72 h",1.54 nM
same,Kp at 4 h,[3],9.77
same,concentration at 4 h,[3]; [4],13500 ng/g
same,concentration at 4 h,[3]; [5],1420 ng/mL
"CCCOc1ccc(-c2cc3c(cc2F)[C@H](NC(=O)O[C@@H]2CN4CCC2CC4)C(C)(C)C3)cc1 [Example 69, (S)-quinuclidin-3-yl((R)-6-fluoro-2,2-dimethyl-5-(4-propoxyphenyl)-2,3-dihydro-1H-inden-1-yl)carbamate]",IC50,"[2]; Homo sapiens, Jurkat, 72 h",1.1 nM
same,Kp at 4 h,[3],9.84
same,concentration at 4 h,[3]; [4],4140 ng/g
same,concentration at 4 h,[3]; [5],433 ng/mL
"COc1ccc(-c2cc3c(cc2F)[C@H](NC(=O)O[C@@H]2CN4CCC2CC4)C(C)(C)C3)cc1 [Example 82, (S)-quinuclidin-3-yl((R)-6-fluoro-5-(4-methoxyphenyl)-2,2-dimethyl-2,3-dihydro-1H-inden-1-yl)carbamate]",IC50,"[2]; Homo sapiens, Jurkat, 72 h",20.3 nM
same,Kp at 4 h,[3],6.32
same,concentration at 4 h,[3]; [4],5520 ng/g
same,concentration at 4 h,[3]; [5],896 ng/mL
"CCOc1ccc(-c2cc3c(cc2F)[C@H](NC(=O)O[C@@H]2CN4CCC2CC4)C(C)(C)C3)cc1F [Example 90, (S)-quinuclidin-3-yl((R)-5-(4-ethoxy-3-fluorophenyl)-6-fluoro-2,2-dimethyl-2,3-dihydro-1H-inden-1-yl)carbamate]",IC50,"[2]; Homo sapiens, Jurkat, 72 h",26.4 nM
same,Kp at 4 h,[3],7.42
same,concentration at 4 h,[3]; [4],6480 ng/g
same,concentration at 4 h,[3]; [5],874 ng/mL
"COc1ccc(-c2cc3c(cc2F)[C@H](NC(=O)O[C@@H]2CN4CCC2CC4)C(C)(C)C3)c(Cl)c1 [Example 103, (S)-quinuclidin-3-yl((R)-5-(2-chloro-4-methoxyphenyl)-6-fluoro-2,2-dimethyl-2,3-dihydro-1H-inden-1-yl)carbamate]",IC50,"[2]; Homo sapiens, Jurkat, 72 h",5.6 nM
same,Kp at 4 h,[3],2.76
same,concentration at 4 h,[3]; [4],4680 ng/g
same,concentration at 4 h,[3]; [5],1700 ng/mL
